Structures can show the parent of a compound that is named as a salt.
Assays:
Assay type in all cases: in vivo
lymphocyte = experiment: Lymphocyte transformation rate (SI value, PHA) in mice; conditions: 30 days
Description: Male C57BL/6N mice were used in Example 2, 28 mice in total. The 28 mice were used for pretest for 7 days before the treatment began. Two groups of 14 mice were then created. […] Each group contained six replicates and each replicate contained 8 mice. The treatment period was for 30 days. Lymphocyte transformation rate in plasma, white blood cell (WBC) count, natural killer cell activity, Plasma IL-2 (Kit provided by Jinginei Biotech) and IL-6 (Kit provided by Bender MedSystems) measurements, and antibody forming, cell count were performed according to methods known to the skilled artisan (see “Medical Immunology Experiment,” Publisher: People Hygiene, Published in 1999 in China, Editor: Xi Chuan Ping). Five days before the end of the treatment, 12 mice from each group (each replicate for 2 mice) were immunized with 0.5 ml of 2% sheep RBC (equivalent to −2×10^8 cells per ml) for testing spleen B-cells. The relative weights of spleen and thymus to body weight (mg/100 g BW) were also measured. All statistical analyses were performed on ANOVA. The WBC count, lymphocyte transformation rate (specifically in the spleen), antibody forming cell, and natural killer cell killing rate (based on the killing rate of K562 cells by natural killer cell) were measured and analyzed, as illustrated in Tables 4and5. […]

K562 cells = experiment: Natural killer cell killing rate in mice; conditions: 30 days, killing of K562 cells
Description: (§1) Male C57BL/6N mice were used in Example 2, 28 mice in total. The 28 mice were used for pretest for 7 days before the treatment began. Two groups of 14 mice were then created. […] Each group contained six replicates and each replicate contained 8 mice. The treatment period was for 30 days.
(§2) Lymphocyte transformation rate in plasma, white blood cell (WBC) count, natural killer cell activity, Plasma IL-2 (Kit provided by Jinginei Biotech) and IL-6 (Kit provided by Bender MedSystems) measurements, and antibody forming, cell count were performed according to methods known to the skilled artisan (see “Medical Immunology Experiment,” Publisher: People Hygiene, Published in 1999 in China, Editor: Xi Chuan Ping). Five days before the end of the treatment, 12 mice from each group (each replicate for 2 mice) were immunized with 0.5 ml of 2% sheep RBC (equivalent to −2×10^8 cells per ml) for testing spleen B-cells. The relative weights of spleen and thymus to body weight (mg/100 g BW) were also measured. All statistical analyses were performed on ANOVA.
(§3) The WBC count, lymphocyte transformation rate (specifically in the spleen), antibody forming cell, and natural killer cell killing rate (based on the killing rate of K562 cells by natural killer cell) were measured and analyzed, as illustrated in Tables 4and5.

Male C57BL/6N mice [1] = experiment: White blood cell (WBC) count in mice; conditions: 30 days
Description: as §1, §2, §3

IL-2 [2] = experiment: Plasma IL-2 measurement in mice; conditions: 30 days
Description: (§4) Male C57BL/6N mice were used in Example 2, 28 mice in total. The 28 mice were used for pretest for 7 days before the treatment began. Two groups of 14 mice were then created. […] Each group contained six replicates and each replicate contained 8 mice. The treatment period was for 30 days. Lymphocyte transformation rate in plasma, white blood cell (WBC) count, natural killer cell activity, Plasma IL-2 (Kit provided by Jinginei Biotech) and IL-6 (Kit provided by Bender MedSystems) measurements, and antibody forming, cell count were performed according to methods known to the skilled artisan (see “Medical Immunology Experiment,” Publisher: People Hygiene, Published in 1999 in China, Editor: Xi Chuan Ping). Five days before the end of the treatment, 12 mice from each group (each replicate for 2 mice) were immunized with 0.5 ml of 2% sheep RBC (equivalent to −2×10^8 cells per ml) for testing spleen B-cells. The relative weights of spleen and thymus to body weight (mg/100 g BW) were also measured. All statistical analyses were performed on ANOVA.

IL-2 [3] = experiment: Serum IL-2 concentration (RIA) in goats pre- and post-operation
Description: (§5) An experiment was conducted on sixteen castrated adult goats, which were randomly divided into control group (n=8) and treatment group (TG, n=8); housed separately; and fed with the same nutrient level. The TG was treated orally with a cysteamine compound (the cysteamine compound is preferably cysteamine hydrochloride, where a dose of 45 mg/kg of body weight was administered, with 30% of the 45 mg/kg dosage comprising the cysteamine compound) provided by Shanghai Walcom Bio-Chem Ltd). Both groups were subjected to rumen operation and duodenum operation.
(§6) This experiment was conducted in four phases: (a) Roughage phase pre-operation: from day 18 to day 14 before the operation, both groups of goats were fed with roughage (dried peanut stalk) and water; (b) Concentrate phase pre-operation: day 13 to day 1 before the operation (in total 13 days), both groups were fed with roughage and concentrate (50 g/head), and the TG was also treated with a cysteamine compound (using dosages described above) at the same time; (c) Rumen operation phase: after completion of the concentrate phase pre-operation, the rumen operation was performed to affix a fistula on the rumen, which was followed by 18 days of recovery; (d) Duodenum operation phase: 18 days after the rumen operation, a second operation was performed to affix a fistula on the duodenum, following which the goats were allowed to have 17 days of recovery to complete this experiment. The feeding diet during the operation was same as that of concentrate phase per-operation.
(§7) While conducting the experiment, blood samples were periodically collected. In general, blood was collected via the neck vein before morning feeding. Part of the blood from each sample was stored in tubes containing heparin for anti-coagulation. The remaining part of each blood sample was centrifuged and then stored the serum at −20° C. Blood samples were collected at the following times: (a) Day 4 of the Roughage phase pre-operation; (b) Day 13 of the Concentrate phase (one day before the operation, B1); (c) 10 days after the 1st operation (rumen operation); and (d) 6 days and 17 days after the 2nd operation (duodenum operation).
(§8) Serum IL-2, cortisol concentration and lymphatic transformation testing were also performed during the experiment. […] To perform lymphatic cells transformation test, the blood samples from both groups were treated as follows: 3 tubes/sample, with blood sample 100 ul/tube for PHA− (PHA−: without PHA) and 3 tubes/sample for PHA+(PHA+: each tube added with 50 ul PHA diluted solution); cells in both PHA− and PHA+ were cultured for total 72 hours. After 48 hours of cell culture, 1 uL ^3H-TdR was added to each tube with and mixed with cells and incubated further for 24 hours. At the completion of the culturing process, the cells were lysed. The lysate from both PHA− and PHA+ tubes were transferred to scintillation bottles, dried at 80° C., then added with 5 ml scintillation solution. The solutions were stored overnight and tested for cpm. SI index implies the rate of lymphatic cells transformation induced by lectin, SI=cpm(PHA+)/cpm(PHA−).
(§9) IL-2 and cortisol testing kits were used. To prepare RPMI-1640 cell culture medium, RPMI-1640 powder was added with distillated water and filtered, and 20% Fetal Bovine Serum, Penicillin (100 U/ml) as well as Streptomycin (100 U/ml) was added. 2 ml culture medium solution was then added to each tube. In addition, diluted PHA, [Methy-^3H] Thymidine with radioactivity 1 mci/m, and Scintillation solution: PPO (2,5, Diphenyloxazole,) 5 g POPOP(1,4bis [5-phenyloxazolyl] benzene) 0.3 g Dimethyl benzene: 800 mL; 100% ethanol: 200 ml were added to each tube.
All data from the experiment (see Table 1) were expressed in mean±SE and analyzed by Excel software for t-test analysis, where P<0.05 implies significant difference, and 0.05<P<0.15 implies changes. The symbol “§” in Table 1 denotes TG treated with Cysteamine. […]

Male C57BL/6N mice [4] = experiment: Relative weights of spleen and thymus to body weight in mice; conditions: 30 days
Description: Male C57BL/6N mice were used in Example 2, 28 mice in total. The 28 mice were used for pretest for 7 days before the treatment began. Two groups of 14 mice were then created. […] Each group contained […]. The treatment period was for 30 days. Lymphocyte transformation rate in plasma, white blood cell (WBC) count, natural killer cell activity, Plasma IL-2 (Kit provided by Jinginei Biotech) and IL-6 (Kit provided by Bender MedSystems) measurements, and antibody forming, cell count were performed according to methods known to the skilled artisan (see “Medical Immunology Experiment,” Publisher: People Hygiene, Published in 1999 in China, Editor: Xi Chuan Ping). Five days before the end of the treatment, 12 mice from each group (each replicate for 2 mice) were immunized with 0.5 ml of 2% sheep RBC (equivalent to −2×10^8 cells per ml) for testing spleen B-cells. The relative weights of spleen and thymus to body weight (mg/100 g BW) were also measured. All statistical analyses were performed on ANOVA. After conducting all tests and analyses, the relative weight of certain immune organs, namely the thymus and spleen, were measured, as illustrated in Table 4.

IL-6 = experiment: Plasma IL-6 measurement in mice; conditions: 30 days
Description: as §4

cortisol = experiment: Serum cortisol concentration (RIA) in goats pre- and post-operation
Description: as §5, §6, §7, §8, §9
Cortisol concentrations of the two groups before the operation were substantially similar (20.51±4.1 for the control group versus 20.32±4.0 ug 1^−1 for the TG). Changes in cortisol concentration levels in the TG before and after the 1st operation were slight. […]

spleen B-cells = experiment: Antibody forming cell count (spleen B-cells after sheep RBC immunization) in mice; conditions: 30 days, immunized with sheep RBC
Description: as §1, §2, §3

lymphatic cells = experiment: Lymphatic cells transformation test (PHA, 3H-TdR, SI) on blood of goats pre- and post-operation
Description: as §5, §6
While conducting the experiment, blood samples were periodically collected. In general, blood was collected via the neck vein before morning feeding. Part of the blood from each sample was stored in tubes containing heparin for anti-coagulation. […]
IL-2 and cortisol testing kits were used. […] Thymidine with radioactivity 1 mci/m, and Scintillation solution: PPO (2,5, Diphenyloxazole,) 5 g POPOP(1,4bis [5-phenyloxazolyl] benzene) 0.3 g Dimethyl benzene: 800 mL; 100% ethanol: 200 ml were added to each tube.

NCCS [Cysteamine hydrochloride, cysteamine hydrochloride]
Lymphocyte Transformation (SI Value, Stimulation Index) (lymphocyte; Treatment 1: 40 mg/kg BW oral): 1.15 ± 0.02 ^B | Lymphocyte Transformation (SI Value, Stimulation Index) (lymphocyte; Treatment 2: 80 mg/kg BW oral): 1.24 ± 0.05 ^A | NK Killing Rate (K562 cells; Treatment 1: 40 mg/kg BW oral): 92.19 ± 2.20% | NK Killing Rate (K562 cells; Treatment 2: 80 mg/kg BW oral): 93.60 ± 2.21% | WBC Count (Male C57BL/6N mice [1]; Treatment 1: 40 mg/kg BW oral): 7.12 ± 0.65 10^9/L | WBC Count (Male C57BL/6N mice [1]; Treatment 2: 80 mg/kg BW oral): 7.53 ± 0.55 10^9/L | Plasma IL-2 (IL-2 [2]; Treatment 1: 40 mg/kg BW oral): 5.88 ± 0.53 pg/mL | Plasma IL-2 (IL-2 [2]; Treatment 2: 80 mg/kg BW oral): 5.76 ± 0.50 pg/mL | difference in IL-2 concentration levels between the two groups (IL-2 [3]; after 17 days from the 2nd operation): had disappeared | TG IL-2 concentration levels higher than the control group (IL-2 [3]; after the first operation (Day 10 after 1st, Day 6 after 2nd operation), P<0.05): 90-100% | IL-2 concentration in TG, pre- versus post-operation (IL-2 [3]; treatment group): no significant difference between pre- and post-operation | IL-2 serum concentration (IL-2 [3]; treatment group n=8, oral 45 mg/kg BW (30% cysteamine compound), pre-operation Concentrate phase, listed as Cysteamine, hydrochloride, 45 mg/kg): 0.97 ± 0.15 µg/L | IL-2 serum concentration (IL-2 [3]; treatment group n=8, oral 45 mg/kg BW (30% cysteamine compound), pre-operation Concentrate phase, listed as cysteamine compound, hydrochloride, 45 mg/kg): 0.97 ± 0.15 µg/L | IL-2 serum concentration (IL-2 [3]; treatment group, oral 45 mg/kg BW, after 1st (rumen) operation, Day 10, listed as Cysteamine, hydrochloride, 45 mg/kg): 1.32 ± 0.10 ^A ug/l | IL-2 serum concentration (IL-2 [3]; treatment group, oral 45 mg/kg BW, after 1st (rumen) operation, Day 10, listed as cysteamine compound, hydrochloride, 45 mg/kg): 1.32 ± 0.10 µg/L | IL-2 serum concentration (IL-2 [3]; treatment group, oral 45 mg/kg BW, after 2nd (duodenum) operation, Day 6, listed as Cysteamine, hydrochloride, 45 mg/kg): 0.95 ± 0.06 ^B ug/l | IL-2 serum concentration (IL-2 [3]; treatment group, oral 45 mg/kg BW, after 2nd (duodenum) operation, Day 6, listed as cysteamine compound, hydrochloride, 45 mg/kg): 0.95 ± 0.06 µg/L | IL-2 serum concentration (IL-2 [3]; treatment group, oral 45 mg/kg BW, after 2nd (duodenum) operation, Day 17): 1.02 ± 0.08 µg/L | Spleen weight (Male C57BL/6N mice [4]; Treatment 1: 40 mg/kg BW oral): 298 ± 5.03 mg/100 g of body weight | Thymus weight (Male C57BL/6N mice [4]; Treatment 1: 40 mg/kg BW oral): 549 ± 1.89 ^B mg/100 g of body weight | Spleen weight (Male C57BL/6N mice [4]; Treatment 2: 80 mg/kg BW oral): 296 ± 7.50 mg/100 g of body weight | Thymus weight (Male C57BL/6N mice [4]; Treatment 2: 80 mg/kg BW oral): 567 ± 7.18 ^A mg/100 g of body weight | Plasma IL-6 (IL-6; Treatment 1: 40 mg/kg BW oral): 226.20 ± 37.93 pg/mL | Plasma IL-6 (IL-6; Treatment 2: 80 mg/kg BW oral): 247.00 ± 51.76 pg/mL | cortisol concentration before the operation (cortisol; TG, before the operation): 20.32±4.0 ug 1^−1 | changes in cortisol concentration levels in the TG before and after the 1st operation (cortisol; treatment group): slight | cortisol serum concentration (cortisol; treatment group n=8, oral 45 mg/kg BW, pre-operation Concentrate phase): 20.3 ± 4.0 µg/L | cortisol serum concentration (cortisol; treatment group, after 1st operation, Day 10): 20.9 ± 3.7 µg/L | cortisol serum concentration (cortisol; treatment group, after 2nd operation, Day 6): 21.2 ± 5.2 µg/L | cortisol serum concentration (cortisol; treatment group, after 2nd operation, Day 17): 20.7 ± 5.8 µg/L | Antibody Forming Cell (OD, Optical Density) (spleen B-cells; Treatment 1: 40 mg/kg BW oral): 1.48 ± 0.19 ^A OD | Antibody Forming Cell (OD, Optical Density) (spleen B-cells; Treatment 2: 80 mg/kg BW oral): 0.91 ± 0.51 ^C OD | degree of decrease in lymphatic cells transformation rate caused by surgical operations (lymphatic cells; TG versus control group, P<0.05): significantly smaller than that of the control group | rate of TG lymphatic cell transformation increased compared to the rate of the control group (lymphatic cells; six days after the 2nd/duodenum operation, P<0.05): 3.5 fold | lymphatic cells transformation rate (SI) (lymphatic cells; treatment group, oral 45 mg/kg BW, Concentrate phase pre-operation, P=0.14 vs control): 132.4±20.3
